Results reported in the NIST ThermoML archive (doi:10.1016/j.fluid.2010.01.025).
± gives the expanded uncertainty stated by the source.

Tests used:
[1] = Crystal; DTA
[2] = Molar enthalpy of transition or fusion; details: Crystal; DSC

CCCC[n+]1cccc(C)c1.Cc1ccc(S(=O)(=O)[O-])cc1 [1-butyl-3-methylpyridinium 4-methylbenzenesulfonate]
Normal melting temperature [1]: 42.7 ± 0.4 °C
Molar enthalpy of transition or fusion [2]: 2.71 ± 0.0837 kcal/mol
